From PMC12288454, “Functional consequences of genetic variations in DgoR, a GntR/FadR family transcriptional repressor of D-galactonate metabolism in Escherichia coli” (Journal of Bacteriology, 2025)

Columns and labels:
DgoR (BW WT DgoR) [1] = target: T1, DgoR (BW WT DgoR) (Escherichia coli, UniProt P31460, A152E); assay: label-free microscale thermophoresis; format: binding
T1 construct: full length (229 aa), C-terminal 6XHis tag, expressed from Ptrc in pRC10 in E. coli BL21(DE3), Co-NTA purified; dimer
T1 sequence (P31460 1-229 A152E): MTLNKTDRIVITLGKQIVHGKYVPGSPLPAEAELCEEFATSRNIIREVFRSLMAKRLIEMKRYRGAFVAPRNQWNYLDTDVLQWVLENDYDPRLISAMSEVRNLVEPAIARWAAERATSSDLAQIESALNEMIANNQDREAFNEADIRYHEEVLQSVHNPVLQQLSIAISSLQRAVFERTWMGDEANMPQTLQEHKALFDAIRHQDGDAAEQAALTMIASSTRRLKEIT

DgoR (BW WT DgoR) [2] = target: T2, DgoR (BW WT DgoR) (Escherichia coli, UniProt P31460, R71C); assay: label-free microscale thermophoresis; format: binding
T2 construct: full length (229 aa), C-terminal 6XHis tag, expressed from Ptrc in pRC10 in E. coli BL21(DE3), Co-NTA purified; dimer
T2 sequence (P31460 1-229 R71C): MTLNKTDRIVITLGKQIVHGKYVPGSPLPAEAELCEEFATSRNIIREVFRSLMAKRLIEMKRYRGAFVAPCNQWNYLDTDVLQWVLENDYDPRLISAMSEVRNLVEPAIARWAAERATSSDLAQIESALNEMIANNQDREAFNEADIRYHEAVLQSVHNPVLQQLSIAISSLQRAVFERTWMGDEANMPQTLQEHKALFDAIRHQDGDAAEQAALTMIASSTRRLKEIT

DgoR (BW WT DgoR) [3] = target: T3, DgoR (BW WT DgoR) (Escherichia coli, UniProt P31460); assay: label-free microscale thermophoresis; format: binding
T3 construct: full length (229 aa), C-terminal 6XHis tag, expressed from Ptrc in pRC10 in E. coli BL21(DE3), Co-NTA purified; dimer
T3 sequence (P31460 1-229): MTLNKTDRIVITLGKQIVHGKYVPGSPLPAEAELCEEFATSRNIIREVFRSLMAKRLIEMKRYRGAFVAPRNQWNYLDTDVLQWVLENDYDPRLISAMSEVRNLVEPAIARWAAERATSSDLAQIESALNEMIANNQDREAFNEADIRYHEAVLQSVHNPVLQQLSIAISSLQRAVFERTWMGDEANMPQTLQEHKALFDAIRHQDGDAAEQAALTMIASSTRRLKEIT

DgoR WT = target: T4, DgoR WT (Escherichia coli BW, UniProt P31460 1-229); assay: EMSA; no effector; apparent Kd, Hill fit; 10 nM DNA, 50 mM Tris pH 8.5, 10 mM MgCl2, 265 mM NaCl, 1 mM PMSF, 12% glycerol, 2 mM DTT, 1 ug herring sperm DNA per 20 uL, 27 C 30 min; effector pre-incubation 37 C 20 min; 8% native PAGE 0.5x TBE; conditions: protein: recombinant; tags: C-terminal 6xHis; chain copies: 2; label: 5'-Cy5 on strand 1; blunt
T4 sequence: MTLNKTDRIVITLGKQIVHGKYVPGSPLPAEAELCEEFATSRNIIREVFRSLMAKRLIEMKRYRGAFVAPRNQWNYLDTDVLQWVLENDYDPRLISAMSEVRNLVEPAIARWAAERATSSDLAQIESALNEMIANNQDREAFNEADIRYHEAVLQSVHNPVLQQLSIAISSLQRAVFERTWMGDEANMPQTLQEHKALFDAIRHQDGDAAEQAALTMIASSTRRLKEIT

O=C(O)[C@H](O)[C@@H](O)[C@@H](O)[C@H](O)CO [D-galactonate]
Kd (DgoR (BW WT DgoR) [1]): 11.3 ± 0.2 µM | Kd (DgoR (BW WT DgoR) [2]): 32.9 ± 1.2 µM | Kd (DgoR (BW WT DgoR) [3]): 10.3 ± 0.3 µM

B1: dgo promoter probe GA149/GA150 (dsDNA)
DNA 1: GTGATCTAAATTGTAGTACAACAATATAAGTTTGTACTACATTACACGCACG
DNA 2: CGTGCGTGTAATGTAGTACAAACTTATATTGTTGTACTACAATTTAGATCAC
Kd (DgoR WT): 0.494 ± 0.019 µM
